Patent publication US20220187282A1, “CARDIOMYOCYTE PROLIFERATION” (The Council of the Queensland Institute of Medical Research, priority 2019, published 2022)
Read-outs that look alike come from different tables or passages of the source.

What was measured:
Format in all cases: biochemical
kinases [1] = target: kinases (Homo sapiens, UniProt P30291); conditions: WEE1 FRET-Lantha SP; Test Conc(μM) 1
kinases [2] = target: kinases (Homo sapiens, UniProt Q99683); conditions: MAP3K5 (ASK1) FRET-Lantha SP; Test Conc(μM) 1
Chain of kinases (Homo sapiens, UniProt Q99683) (Q99683 whole entry): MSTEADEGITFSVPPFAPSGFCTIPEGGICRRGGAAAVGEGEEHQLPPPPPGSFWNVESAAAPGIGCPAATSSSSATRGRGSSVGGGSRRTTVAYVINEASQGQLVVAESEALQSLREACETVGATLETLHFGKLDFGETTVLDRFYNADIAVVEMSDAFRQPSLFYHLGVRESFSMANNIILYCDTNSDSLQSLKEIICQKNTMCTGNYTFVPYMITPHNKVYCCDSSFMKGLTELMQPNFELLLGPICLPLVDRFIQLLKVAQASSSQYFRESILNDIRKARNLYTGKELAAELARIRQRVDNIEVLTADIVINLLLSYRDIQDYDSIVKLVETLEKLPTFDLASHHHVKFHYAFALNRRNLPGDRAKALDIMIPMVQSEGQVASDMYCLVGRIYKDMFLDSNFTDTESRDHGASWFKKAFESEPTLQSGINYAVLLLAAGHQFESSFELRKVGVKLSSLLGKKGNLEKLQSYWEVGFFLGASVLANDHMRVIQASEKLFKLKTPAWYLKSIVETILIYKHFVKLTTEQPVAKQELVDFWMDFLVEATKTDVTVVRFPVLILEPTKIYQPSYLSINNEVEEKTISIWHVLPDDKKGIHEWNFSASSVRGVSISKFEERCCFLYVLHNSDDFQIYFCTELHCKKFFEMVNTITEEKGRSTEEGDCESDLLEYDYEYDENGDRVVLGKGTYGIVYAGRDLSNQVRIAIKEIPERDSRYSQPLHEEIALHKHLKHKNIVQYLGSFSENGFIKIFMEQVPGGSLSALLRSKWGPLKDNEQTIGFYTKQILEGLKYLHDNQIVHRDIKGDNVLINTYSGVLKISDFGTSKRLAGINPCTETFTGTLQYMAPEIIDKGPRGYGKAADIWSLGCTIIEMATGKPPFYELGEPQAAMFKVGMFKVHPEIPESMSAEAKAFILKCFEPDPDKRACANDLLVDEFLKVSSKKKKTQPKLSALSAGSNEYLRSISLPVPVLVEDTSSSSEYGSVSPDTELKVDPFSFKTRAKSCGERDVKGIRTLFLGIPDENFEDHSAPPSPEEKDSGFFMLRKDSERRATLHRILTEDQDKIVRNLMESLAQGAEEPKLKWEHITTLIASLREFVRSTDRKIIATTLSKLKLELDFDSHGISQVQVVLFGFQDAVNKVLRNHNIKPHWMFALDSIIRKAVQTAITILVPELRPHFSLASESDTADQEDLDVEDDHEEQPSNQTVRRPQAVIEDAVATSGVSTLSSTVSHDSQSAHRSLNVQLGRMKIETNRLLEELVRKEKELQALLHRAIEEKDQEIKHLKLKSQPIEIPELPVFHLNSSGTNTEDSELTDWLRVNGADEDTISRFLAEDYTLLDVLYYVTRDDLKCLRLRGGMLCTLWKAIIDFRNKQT

kinases [3] = target: kinases (Homo sapiens, UniProt Q16584); conditions: MAP3K11 (MLK3) FRET-Lantha SP; Test Conc(μM) 1
kinases [4] = target: kinases (Homo sapiens, UniProt Q9UBE8); conditions: NLK FRET-Lantha SP; Test Conc(μM) 1
kinases [5] = target: kinases (Homo sapiens, UniProt Q9UHD2); conditions: TBK1 FRET-Z-Lyte SP; Test Conc(μM):ATP Conc(μM) 1:25
kinases [6] = target: kinases (Homo sapiens, UniProt Q16620); conditions: NTRK2 (TRKB) *Mn* Z-Lyte SP; Test Conc(μM):ATP Conc(μM) 1:25
kinases [7] = target: kinases (Homo sapiens, UniProt P16591); conditions: FER FRET-Z-Lyte SP; Test Conc(μM):ATP Conc(μM) 1:25
kinases [8] = target: T1, kinases (Homo sapiens, UniProt O15530)
T1 sequence (O15530 1-556): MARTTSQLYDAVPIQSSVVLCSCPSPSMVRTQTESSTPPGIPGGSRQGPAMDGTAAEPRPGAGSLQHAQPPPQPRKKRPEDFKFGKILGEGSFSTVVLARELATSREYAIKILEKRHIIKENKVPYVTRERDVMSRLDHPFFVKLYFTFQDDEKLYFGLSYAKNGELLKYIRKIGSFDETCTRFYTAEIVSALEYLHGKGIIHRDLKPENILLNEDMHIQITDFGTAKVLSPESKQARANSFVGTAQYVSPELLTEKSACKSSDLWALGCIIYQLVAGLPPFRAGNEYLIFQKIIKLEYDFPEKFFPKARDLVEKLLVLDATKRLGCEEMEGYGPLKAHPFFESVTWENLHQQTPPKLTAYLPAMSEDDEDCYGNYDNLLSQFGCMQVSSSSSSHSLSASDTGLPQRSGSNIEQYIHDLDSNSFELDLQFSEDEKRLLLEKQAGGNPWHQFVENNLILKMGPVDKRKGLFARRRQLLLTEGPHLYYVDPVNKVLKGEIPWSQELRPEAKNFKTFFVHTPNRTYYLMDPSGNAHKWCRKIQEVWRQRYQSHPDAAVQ

kinases [9] = target: kinases (Homo sapiens, UniProt Q9H4B4); conditions: PLK3 FRET-Z-Lyte SP; Test Conc(μM):ATP Conc(μM) 1:50
Chain of kinases (Homo sapiens, UniProt Q9H4B4) (Q9H4B4 whole entry): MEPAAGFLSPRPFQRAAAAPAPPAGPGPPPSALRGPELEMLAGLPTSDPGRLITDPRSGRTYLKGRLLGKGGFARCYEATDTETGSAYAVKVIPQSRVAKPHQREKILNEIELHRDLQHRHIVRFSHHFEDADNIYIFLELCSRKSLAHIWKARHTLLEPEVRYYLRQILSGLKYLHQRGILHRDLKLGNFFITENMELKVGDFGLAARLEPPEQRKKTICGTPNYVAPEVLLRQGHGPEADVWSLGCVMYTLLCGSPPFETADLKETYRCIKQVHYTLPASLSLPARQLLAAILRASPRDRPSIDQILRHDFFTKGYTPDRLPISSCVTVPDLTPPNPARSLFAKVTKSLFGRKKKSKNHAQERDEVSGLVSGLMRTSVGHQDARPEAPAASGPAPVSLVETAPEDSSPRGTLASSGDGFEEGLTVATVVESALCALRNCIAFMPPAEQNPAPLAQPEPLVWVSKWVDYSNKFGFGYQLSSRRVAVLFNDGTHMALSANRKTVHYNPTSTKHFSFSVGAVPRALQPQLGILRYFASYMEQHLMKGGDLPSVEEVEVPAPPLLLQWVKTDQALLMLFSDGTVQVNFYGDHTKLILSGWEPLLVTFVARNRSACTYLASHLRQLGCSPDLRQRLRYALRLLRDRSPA

kinases [10] = target: kinases (Homo sapiens, UniProt Q9H2K8); conditions: TAOK3 (JIK) FRET-Lantha SP; Test Conc(μM) 1
kinases [11] = target: kinases (Homo sapiens, UniProt Q9UPE1); conditions: STK23 (MSSK1) FRET-Z-Lyte SP; Test Conc(μM):ATP Conc(μM) 1:75
kinases [12] = target: kinases (Homo sapiens, UniProt Q86Z02); conditions: HIPK1 (Myak) FRET-Z-Lyte SP; Test Conc(μM):ATP Conc(μM) 1:5
kinases [13] = target: kinases (Homo sapiens, UniProt P43403); conditions: ZAP70 *Mn* FRET-Z-Lyte SP; Test Conc(μM):ATP Conc(μM) 1:5
kinases [14] = target: kinases (Homo sapiens, UniProt P33981); conditions: TTK FRET-Lantha SP; Test Conc(μM) 1
Chain of kinases (Homo sapiens, UniProt P33981) (P33981 whole entry): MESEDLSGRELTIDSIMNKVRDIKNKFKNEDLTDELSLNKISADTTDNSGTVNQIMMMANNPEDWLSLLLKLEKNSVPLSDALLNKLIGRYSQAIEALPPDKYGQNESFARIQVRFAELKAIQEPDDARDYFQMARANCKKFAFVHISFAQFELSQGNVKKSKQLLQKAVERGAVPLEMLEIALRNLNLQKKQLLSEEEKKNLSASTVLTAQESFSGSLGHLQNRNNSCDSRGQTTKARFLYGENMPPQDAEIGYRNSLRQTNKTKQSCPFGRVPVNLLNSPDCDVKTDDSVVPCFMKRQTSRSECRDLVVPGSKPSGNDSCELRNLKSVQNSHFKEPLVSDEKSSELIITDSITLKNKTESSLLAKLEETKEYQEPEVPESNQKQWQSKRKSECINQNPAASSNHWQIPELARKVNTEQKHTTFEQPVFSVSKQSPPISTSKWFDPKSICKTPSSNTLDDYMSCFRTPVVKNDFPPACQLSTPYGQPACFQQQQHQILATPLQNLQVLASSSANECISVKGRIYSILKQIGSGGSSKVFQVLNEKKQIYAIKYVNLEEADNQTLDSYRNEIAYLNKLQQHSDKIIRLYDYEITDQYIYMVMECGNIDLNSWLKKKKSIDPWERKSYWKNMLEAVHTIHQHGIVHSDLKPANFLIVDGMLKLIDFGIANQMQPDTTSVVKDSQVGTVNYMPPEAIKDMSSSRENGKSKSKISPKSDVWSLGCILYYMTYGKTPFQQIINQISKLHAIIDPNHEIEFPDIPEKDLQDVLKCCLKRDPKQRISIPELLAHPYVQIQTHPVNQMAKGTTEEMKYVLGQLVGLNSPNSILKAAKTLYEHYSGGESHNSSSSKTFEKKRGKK

kinases [15] = target: kinases (Homo sapiens, UniProt Q86UX6); conditions: STK32C (YANK3) FRET-Lantha SP; Test Conc(μM) 1
Chain of kinases (Homo sapiens, UniProt Q86UX6) (Q86UX6 whole entry): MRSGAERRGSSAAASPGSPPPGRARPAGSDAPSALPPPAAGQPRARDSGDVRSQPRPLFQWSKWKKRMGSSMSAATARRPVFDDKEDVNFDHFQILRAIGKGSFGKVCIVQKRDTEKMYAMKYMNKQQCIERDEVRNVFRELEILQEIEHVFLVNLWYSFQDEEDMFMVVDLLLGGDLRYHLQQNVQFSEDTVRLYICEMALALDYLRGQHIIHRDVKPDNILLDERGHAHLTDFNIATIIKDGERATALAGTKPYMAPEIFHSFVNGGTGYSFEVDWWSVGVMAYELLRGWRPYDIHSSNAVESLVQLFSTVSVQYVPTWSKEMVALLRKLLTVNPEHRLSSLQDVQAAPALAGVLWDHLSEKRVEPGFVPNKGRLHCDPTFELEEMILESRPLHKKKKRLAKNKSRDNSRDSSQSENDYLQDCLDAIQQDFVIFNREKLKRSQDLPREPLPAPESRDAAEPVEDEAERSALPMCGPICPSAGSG

kinases [16] = target: kinases (Homo sapiens, UniProt Q16566); conditions: CAMK4 (CaMKIV) FRET-Z-Lyte SP; Test Conc(μM):ATP Conc(μM) 1:25
kinases [17] = target: kinases (Homo sapiens, UniProt P11309); conditions: PIM1 FRET-Z-Lyte SP; Test Conc(μM):ATP Conc(μM) 1:400
Chain of kinases (Homo sapiens, UniProt P11309) (P11309 whole entry): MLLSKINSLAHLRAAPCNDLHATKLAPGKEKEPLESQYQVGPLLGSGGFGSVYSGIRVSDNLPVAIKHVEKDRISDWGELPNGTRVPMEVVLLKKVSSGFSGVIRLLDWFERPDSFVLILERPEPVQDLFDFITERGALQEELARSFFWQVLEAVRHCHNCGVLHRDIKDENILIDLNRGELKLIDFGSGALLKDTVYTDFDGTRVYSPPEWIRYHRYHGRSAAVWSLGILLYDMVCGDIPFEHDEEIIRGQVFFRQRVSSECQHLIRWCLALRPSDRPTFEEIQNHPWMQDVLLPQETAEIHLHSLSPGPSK

kinases [18] = target: kinases (Homo sapiens, UniProt O43781); conditions: DYRK3 FRET-Z-Lyte SP; ATP Conc(μM):Test Conc(μM) 1:5
Chain of kinases (Homo sapiens, UniProt O43781) (O43781 whole entry): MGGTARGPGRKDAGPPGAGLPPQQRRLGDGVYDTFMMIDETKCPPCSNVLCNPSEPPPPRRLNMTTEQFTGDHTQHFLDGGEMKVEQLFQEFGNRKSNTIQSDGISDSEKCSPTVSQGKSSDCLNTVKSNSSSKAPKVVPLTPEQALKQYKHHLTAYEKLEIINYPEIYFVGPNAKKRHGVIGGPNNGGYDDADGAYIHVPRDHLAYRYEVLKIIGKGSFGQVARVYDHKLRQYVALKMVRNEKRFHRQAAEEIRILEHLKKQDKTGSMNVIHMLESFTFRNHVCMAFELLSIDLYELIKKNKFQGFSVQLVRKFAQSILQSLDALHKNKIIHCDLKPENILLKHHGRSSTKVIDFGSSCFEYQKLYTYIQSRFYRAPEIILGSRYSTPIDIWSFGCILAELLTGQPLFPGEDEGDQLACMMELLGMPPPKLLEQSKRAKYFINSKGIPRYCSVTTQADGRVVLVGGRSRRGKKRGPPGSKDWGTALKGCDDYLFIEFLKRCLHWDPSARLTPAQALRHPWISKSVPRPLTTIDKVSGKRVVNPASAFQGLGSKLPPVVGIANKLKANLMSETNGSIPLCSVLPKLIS

kinases [19] = target: kinases (Homo sapiens, UniProt P53671); conditions: LIMK2 FRET-Lantha SP; Test Conc(μM) 1
kinases [20] = target: kinases (Homo sapiens, UniProt P53778); conditions: MAPK12 (p38 gamma) Z-Lyte SP; Test Conc(μM):ATP Conc(μM) 1:10
kinases [21] = target: kinases (Homo sapiens, UniProt Q9HAZ1); conditions: CLK4 FRET-Lantha SP; Test Conc(μM) 1
kinases [22] = target: kinases (Homo sapiens, UniProt Q8IU85); conditions: CAMK1D FRET-Z-Lyte SP; Test Conc(μM):ATP Conc(μM) 1:25
kinases [23] = target: kinases (Homo sapiens, UniProt Q9NYY3); conditions: PLK2 FRET-Z-Lyte SP; Test Conc(μM):ATP Conc(μM) 1:25
kinases [24] = target: kinases (Homo sapiens, UniProt Q96RR4); conditions: CAMKK2 (Beta) FRET-Lantha SP; Test Conc(μM) 1
[25] = PDK1 (Direct) FRET-Z-lyte SP, Test Conc(μM):ATP Conc(μM) 1:25
[26] = PDK1 Cascade FRET-Z-Lyte SP, Test Conc(μM):ATP Conc(μM) 1:100

Chain of kinases (Homo sapiens, UniProt P30291) (P30291 whole entry): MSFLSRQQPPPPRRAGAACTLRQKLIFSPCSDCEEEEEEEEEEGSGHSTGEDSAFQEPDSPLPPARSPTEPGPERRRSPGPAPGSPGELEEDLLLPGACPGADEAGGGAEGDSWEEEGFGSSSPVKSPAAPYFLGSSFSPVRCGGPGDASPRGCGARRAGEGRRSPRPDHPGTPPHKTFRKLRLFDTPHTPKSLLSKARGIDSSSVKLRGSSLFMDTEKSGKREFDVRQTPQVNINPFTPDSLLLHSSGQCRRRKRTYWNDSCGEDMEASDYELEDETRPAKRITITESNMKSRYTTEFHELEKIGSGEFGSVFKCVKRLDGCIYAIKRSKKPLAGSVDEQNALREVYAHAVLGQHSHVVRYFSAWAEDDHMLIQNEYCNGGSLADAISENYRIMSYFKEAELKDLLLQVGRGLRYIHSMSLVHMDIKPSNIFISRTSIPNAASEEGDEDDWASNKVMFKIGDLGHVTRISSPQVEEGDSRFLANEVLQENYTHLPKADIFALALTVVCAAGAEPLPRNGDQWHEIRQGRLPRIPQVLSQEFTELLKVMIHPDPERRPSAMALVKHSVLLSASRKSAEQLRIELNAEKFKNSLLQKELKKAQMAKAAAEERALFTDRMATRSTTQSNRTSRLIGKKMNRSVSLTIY

SMILES	Mean Inhib (%) (kinases [1])	Mean Inhib (%) (kinases [2])	Mean Inhib (%) (kinases [3])	Mean Inhib (%) (kinases [4])	Mean Inhib (%) (kinases [5])	Mean Inhib (%) (kinases [6])	Mean Inhib (%) (kinases [7])	Mean Inhib (%) (kinases [8]; [25])	Mean Inhib (%) (kinases [8]; [26])	Mean Inhib (%) (kinases [9])	Mean Inhib (%) (kinases [10])	Mean Inhib (%) (kinases [11])	Mean Inhib (%) (kinases [12])	Mean Inhib (%) (kinases [13])	Mean Inhib (%) (kinases [14])	Mean Inhib (%) (kinases [15])	Mean Inhib (%) (kinases [16])	Mean Inhib (%) (kinases [17])	Mean Inhib (%) (kinases [18])	Mean Inhib (%) (kinases [19])	further results
Cc1ccc(NC(=O)c2ccnc(N3CCOCC3)c2)cc1Nc1ccnc(N2CC(C)OC(C)C2)n1 (centres unmarked) [compound 3]	4.6	0.2	−0.7	−3.5	−0.8	1.9	4.8	0.4	3.7	5.8	0.3	4.3	1.3	8.1	6.5	−1.0	−5.4	7.8	0.4	0.5	Mean Inhib (%) (kinases [20]): 5.1%; Mean Inhib (%) (kinases [21]): 6.4%; Mean Inhib (%) (kinases [22]): 0.0%; Mean Inhib (%) (kinases [23]): 1.8%; Mean Inhib (%) (kinases [24]): −2.5%
Cc1cc(Oc2ccnc(Nc3ccc(S(N)(=O)=O)cc3)c2)c(-c2ccccn2)nc1C [compound 65]	1.2	6.1	−0.8	88.8	4.2	0.7	5.0	6.9	9.4	−4.9	1.7	−4.8	1.2	0.0	−2.0	7.8	−1.8	3.8	−1.2	22.2	Mean Inhib (%) (kinases [20]): 4.1%; Mean Inhib (%) (kinases [21]): 0.4%; Mean Inhib (%) (kinases [22]): −7.6%; Mean Inhib (%) (kinases [23]): 14.0%; Mean Inhib (%) (kinases [24]): −3.4%
